Test results from patent US9944668B2, “Manganese-based magnetic resonance contrast agents” (The General Hospital Corporation, priority 2013, dated 2018).
One block for each molecule: values may come before it.

What was measured:
Assay type in all cases: physicochemical
[1] = T1 relaxivity (r1) measurement at 1.4 T, 37° C., TRIS buffer pH 7.4; details: for r1 (relaxivity): pH 7.4, 37° C., 1.4 Tesla, TRIS buffer
Description: (§1) Liquid chromatography-electrospray mass spectrometry (LC-MS) was performed using an Agilent 1100 Series apparatus with an LC/MSD trap and Daly conversion dynode detector with UV detection at 220, 254 and 280 nm. The methods used on this system are as follows: (a) Luna C18 column (100×2 mm); eluent A: H2O/0.1% formic acid, B: MeCN/0.1% formic acid; gradient: 5% B to 95% B over 9 minutes; flow rate 0.8 mL/min (used for characterization of organic compounds), and (b) Kromasil C18 column (250×4.6 mm); eluent C: 95% MeCN/5% 10 mM ammonium acetate, D: 10 mM ammonium acetate; gradient 5% C to 8% C over 14 minutes; flow rate 0.8 ml/min (used for characterization of manganese complexes). Reversed-phase semipreparative purification was performed on a Rainin Dynamax HPLC system with UV detection at 254 nm using a Polaris C18 column. The method used for purification is as follows: The mobile phase A was 50 mM ammonium acetate buffer, pH 6.5 and mobile phase B was a mixture of 5% 50 mM ammonium acetate buffer, pH 6.5/95% MeCN. Starting from 5% B, the fraction of B increased to 8% over 23 minutes. The column was washed with 100% B for 2 minutes and then ramped to 5% B. The system was re-equilibrated at 5% B for 3 minutes. Relaxivity measurements were performed on a Bruker mq60 Minispec at 1.4 T and 37° C. Manganese concentrations were determined using an Agilent 7500a ICP-MS system. All samples were diluted with 0.1% Triton X-100 in 5% nitric acid containing 20 ppb of Lu (as internal standard). The ratio of Mn (54.94)/Lu(174.97) was used to quantify the manganese concentration. A linear calibration curve ranging from 0.1 ppb to 200 ppb was generated daily for the quantification. UV-Vis spectra were recorded on a SpectraMax M2 spectrophotometer using quartz cuvette with a 1 cm path length. Cyclic voltammetry of Mn^IIHBET, Mn^IIEDTA and Mn^IIIHBET was recorded using a Nuvant EZstat pro potentiostat in TRIS buffer (pH=7.4), containing 0.5M KNO3 as supporting electrolyte, at 100 mVs-1 scan rate. Glassy carbon was used as the working electrode, Ag/AgCl served as the reference electrode and Pt wire was used as the auxiliary electrode. The K4FeCN6/K3FeCN6 couple was used as the internal standard.
T1 was measured with an inversion recovery pulse sequence taking 10 inversion times. Relaxivity was determined from the slope of a plot of 1/T1 vs. concentration of in TRIS buffer, pH=7.4 at 37° C. The concentration of manganese in each stock solution was determined using ICP-MS.

[2] = Cyclic voltammetry of manganese complexes (Mn(III)/Mn(II) redox couple); details: for Half-cell potential: pH 7.4, vs. normal hydrogen electrode (NHE)
Description: as §1

[3] = T1 relaxivity measurement by MR imaging at 4.7 T; details: room temperature, pH 7.4 TRIS buffer
Description: MR imaging was performed using a Bruker Biospec 4.7 T system. Three samples (˜500 μL) were placed in a homemade sample holder and imaged using a volume coil. Acquisition matrix=64×256 for 0.234×0.312 mm^2 in-plane resolution; slice thickness=5 mm. T1-weighted images were obtained with a fast low angle shot (FLASH) gradient echo sequence: TR/TE/FA=20/5.44/40° with 8 averages. T1 was determined using a 2D rapid acquisition refocused echo (RARE) inversion recovery sequence: TR=3200 ms, TE=9.7 ms. Inversion times (TI): 5, 45, 85, 165, 325, 645, 1285, 1925 and 3205 ms. T1 was obtained from a nonlinear least square fit of the signal intensity (SI(t)) vs. TI curve where T1, SI(0) and a are adjustable parameters, equation S2. SI(t)=SI(0)[1−α,e^TI/T1] (eq. S2)

[4] = Kinetics of reduction of Mn^III-HBET by glutathione; details: 37° C., pH 7.4; first-order in both [GSH] and [Mn^III-HBET]
Description: This series of kinetic experiments were conducted at 37° C. (pH 7.4) to determine the empirical rate law for the reduction of Mn^III-HBET by glutathione. […] This feature was used to monitor the reduction of […] over time. Initial reaction rates were measured at a three different glutathione concentrations (5 mM, 10 mM and 20 mM). Additionally, for each glutathione concentration, the reaction was performed at four different initial concentrations of Mn^III-HBET (0.3 mM, 0.4 mM, 0.5 mM and 0.6 mM). By using a large excess of glutathione in these experiments, we found the reaction behaved pseudo first-order with respect to the […] complex as expressed in equation S1. [Mn^IIIHBET]t=[Mn^IIIHBET]o·e^−k^obs^·t (eq. S1)
Here, the observed rate constant (kobs) is simply the product of the actual rate constant (k) and [GSH], t is time, and the subscripts ‘t’ and ‘o’ refer to the concentration at time ‘t’ or the initial concentration, respectively. […] In this way, the slope of each line is equal to −k·[GSH] and the intercept is In[MnIII-HBET]o. Based on these experiments, we determined that the reaction was first-order in both [GSH] and [Mn^III-HBET] with an overall second-order rate constant of (3.8±0.3)×10^−1M^−1s^−1.

[5] = Relaxivity (r1) at different field strengths in HEPES buffer; details: 37° C., pH 7.4 HEPES buffer
Description: The relaxivities of the compounds for Formulas (XI) and (XII) were determined at different field strengths at 37° C. in pH 7.4 HEPES buffer. The relaxivity was obtained from the slope of a plot of 1/T1 vs. [Mn] for different Mn concentrations. Since Formula (XI) contains 6 Mn per molecule, the ionic (per Mn) and molecular (per molecule) relaxivities are given below.

r1 (relaxivity) [1]: 3.26 mM⁻¹ s⁻¹
Molecule: O=C([O-])CN(CC(=O)[O-])C1CCCCC1N(CC(=O)[O-])Cc1ccccc1[O-].[Mn+2].[Na+].[Na+] (racemic) [Compound 20, Na2[Mn^IIcycHBET]]

r1 (relaxivity) [1]: 2.76 mM⁻¹ s⁻¹
Half-cell potential [2]: 379 mV
Molecule: O=C([O-])CN(CCN(CC(=O)[O-])Cc1ccccc1[O-])CC(=O)[O-].[Mn+2].[Na+].[Na+] [Compound 4, Na2[Mn^IIHBET]]

r1 (relaxivity) [1]: 1.05 mM⁻¹ s⁻¹
fold higher relaxivity of reduced form vs oxidized form [3]: 3.3 fold
Molecule: O=C([O-])CN(CCN(CC(=O)[O-])Cc1ccccc1[O-])CC(=O)[O-].[Mn+3].[Na+] [Compound 5, Na[Mn^IIIHBET]]
overall second-order rate constant of reduction by glutathione [4]: (3.8±0.3)×10^−1 M^−1s^−1

r1 (relaxivity) [1]: 3.11 mM⁻¹ s⁻¹
Half-cell potential [2]: 344 mV
Molecule: COc1ccc([O-])c(CN(CCN(CC(=O)[O-])CC(=O)[O-])CC(=O)[O-])c1.[Mn+2].[Na+].[Na+] [Compound 9, Na2[Mn^IIHBET-OMe]]

r1 (relaxivity) [1]: 2.28 mM⁻¹ s⁻¹
Molecule: O=C([O-])CN(CCN(CC(=O)[O-])Cc1cc([N+](=O)[O-])ccc1[O-])CC(=O)[O-].[Mn+2].[Na+].[Na+] [Compound 13, Na2[Mn^IIHBET-NO2]]

r1 (relaxivity) [1]: 0.34 mM⁻¹ s⁻¹
Half-cell potential [2]: 476 mV
Molecule: O=C([O-])CN(CCN(CC(=O)[O-])Cc1cc([N+](=O)[O-])ccc1[O-])CC(=O)[O-].[Mn+3].[Na+] [Compound 14, Na[Mn^IIIHBET-NO2]]

r1 (relaxivity) [1]: 1.56 mM⁻¹ s⁻¹
Half-cell potential [2]: 365 mV
Molecule: O=C([O-])CN(CC(=O)[O-])C1CCCCC1N(CC(=O)[O-])Cc1ccccc1[O-].[Mn+3].[Na+] (stereo not shown) [Compound 21, Na[Mn^IIIcycHBET]]

r1 (relaxivity) [1]: 2.30 mM⁻¹ s⁻¹
Molecule: O=C([O-])CN(CC(=O)[O-])C1CCCCC1N(CC(=O)[O-])Cc1cc([N+](=O)[O-])ccc1[O-].[Mn+2].[Na+].[Na+] (stereo not shown) [Compound 30, Na2[Mn^IIcycHBET-NO2)]]

Half-cell potential [2]: 488 mV
Molecule: O=C([O-])CN(CC(=O)[O-])C1CCCCC1N(CC(=O)[O-])Cc1cc([N+](=O)[O-])ccc1[O-].[Mn+3].[Na+] (stereo not shown) [Compound 31, Na[Mn^IIIcycHBET-NO2]]

half-cell potential (Mn^II/Mn^III) ([2]; TRIS buffer pH 7.4, vs. K4Fe(CN)6/K3Fe(CN)6): 0.016 V
Molecule: O=C([O-])CN(CCN(CC(=O)[O-])Cc1ccccc1[O-])Cc1ccccc1[O-].[Mn+3] [Mn^III-HBED, reference compound]

Relaxivity r1 (per Mn) ([5]; 0.47T): 9.07 mM⁻¹ s⁻¹
Relaxivity r1 per molecule ([5]; 0.47T): 54.4 mM⁻¹ s⁻¹
Relaxivity r1 (per Mn) ([5]; 1.4T): 9.28 mM⁻¹ s⁻¹
Relaxivity r1 per molecule ([5]; 1.4T): 55.7 mM⁻¹ s⁻¹
Relaxivity r1 (per Mn) ([5]; 4.7T): 6.54 mM⁻¹ s⁻¹
Relaxivity r1 per molecule ([5]; 4.7T): 39.2 mM⁻¹ s⁻¹
Relaxivity r1 (per Mn) ([5]; 9.4T): 4.94 mM⁻¹ s⁻¹
Relaxivity r1 per molecule ([5]; 9.4T): 29.6 mM⁻¹ s⁻¹
Relaxivity r1 (per Mn) ([5]; 11.7T): 3.57 mM⁻¹ s⁻¹
Relaxivity r1 per molecule ([5]; 11.7T): 21.4 mM⁻¹ s⁻¹
Molecule: Mn6[N3P3-(TyOH-EDTA)6] [(XI)]

Relaxivity r1 (per Mn) ([5]; 0.47T): 3.60 mM⁻¹ s⁻¹
Relaxivity r1 (per Mn) ([5]; 1.4T): 2.80 mM⁻¹ s⁻¹
Relaxivity r1 (per Mn) ([5]; 9.4T): 3.65 mM⁻¹ s⁻¹
Relaxivity r1 (per Mn) ([5]; 11.7T): 3.05 mM⁻¹ s⁻¹
Molecule: Na[Mn(TyOH-EDTA)] [(XII)]

Relaxivity r1 ([1]; 1.41T, 37° C., pH 7.4 Tris buffer): 2.50 mM⁻¹ s⁻¹
Molecule: [Mn(CyP3A)] [(IX)]
